From BindingDB's records for doi:10.1124/jpet.302.1.359 (Bayer, 2002)

Key:
Cannabinoid receptor 1 = Cannabinoid receptor 1 (Homo sapiens, UniProt P21554)
Cannabinoid receptor 2 = Cannabinoid receptor 2 (Homo sapiens, UniProt P34972)
Sequence of Cannabinoid receptor 2 (P34972 whole entry): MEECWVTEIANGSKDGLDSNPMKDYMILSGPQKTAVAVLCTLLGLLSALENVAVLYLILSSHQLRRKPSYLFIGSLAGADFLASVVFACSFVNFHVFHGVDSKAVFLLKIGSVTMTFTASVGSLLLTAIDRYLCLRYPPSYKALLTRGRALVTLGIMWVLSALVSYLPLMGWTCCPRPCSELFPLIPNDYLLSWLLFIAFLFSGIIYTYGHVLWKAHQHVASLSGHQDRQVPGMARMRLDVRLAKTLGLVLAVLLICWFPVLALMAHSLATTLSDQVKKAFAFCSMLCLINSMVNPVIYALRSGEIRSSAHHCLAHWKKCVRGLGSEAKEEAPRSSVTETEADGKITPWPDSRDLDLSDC

Sequence of Cannabinoid receptor 1 (P21554 whole entry): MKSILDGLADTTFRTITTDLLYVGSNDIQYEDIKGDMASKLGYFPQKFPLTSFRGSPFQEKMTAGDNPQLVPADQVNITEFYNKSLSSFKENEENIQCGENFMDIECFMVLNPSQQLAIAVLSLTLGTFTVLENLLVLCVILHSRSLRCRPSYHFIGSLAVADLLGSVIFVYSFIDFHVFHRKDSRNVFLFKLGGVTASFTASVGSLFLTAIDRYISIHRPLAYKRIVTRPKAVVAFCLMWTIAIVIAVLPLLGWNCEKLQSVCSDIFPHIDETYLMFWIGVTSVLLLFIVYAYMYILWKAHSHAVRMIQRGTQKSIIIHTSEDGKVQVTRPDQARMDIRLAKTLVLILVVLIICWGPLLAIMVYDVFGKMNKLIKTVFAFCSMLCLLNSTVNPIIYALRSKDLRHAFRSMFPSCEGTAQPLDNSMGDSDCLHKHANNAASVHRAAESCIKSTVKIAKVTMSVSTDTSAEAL

SMILES: CCCCCCC(C)(C)c1cc(O)c2c(c1)OC(C)(C)[C@@H]1CC=C(CO)CC21 (stereo partly drawn) [(R)-3-(1,1-Dimethyl-heptyl)-9-hydroxymethyl-6,6-dimethyl-6a,7,10,10a-tetrahydro-6H-benzo[c]chromen-1-ol]
- Ki (Cannabinoid receptor 1): 0.41 nM

SMILES: O=S(=O)(CCCC(F)(F)F)Oc1cccc(Oc2ccc(O)c3c2CC(CO)=C3)c1 [KN 38-7271]
- Ki (Cannabinoid receptor 2): 5.96 nM
